# Results taken from PMC9481151, “Discovery of new symmetrical and asymmetrical nitrile-containing 1,4-dihydropyridine derivatives as dual kinases and P-glycoprotein inhibitors: synthesis, in vitro assays, and in silico studies” (Journal of Enzyme Inhibition and Medicinal Chemistry, 2022).
# Key:
# IGROV1 = assay: NCI single dose (10 µM) SRB screen; type: cell-based, human; settings: ovarian cancer, 48 h
# HOP-62 = assay: NCI single dose (10 µM) SRB screen; type: cell-based, human; settings: non-small cell lung cancer, 48 h
# SK-MEL-28 = assay: NCI single dose (10 µM) SRB screen; type: cell-based, human; settings: melanoma, 48 h
# HCT-15 = assay: NCI single dose (10 µM) SRB screen; type: cell-based, human; settings: colon cancer, 48 h
# UO-31 = assay: NCI single dose (10 µM) SRB screen; type: cell-based, human; settings: renal cancer, 48 h
# SK-MEL-2 = assay: NCI single dose (10 µM) SRB screen; type: cell-based, human; settings: melanoma, 48 h
# Aspergillus flavus = assay: Agar well diffusion method
# MOLT-4 = assay: NCI single dose (10 µM) SRB screen; type: cell-based, human; settings: leukaemia, 48 h
# HOP-92 = assay: NCI single dose (10 µM) SRB screen; type: cell-based, human; settings: non-small cell lung cancer, 48 h
# UACC-62 = assay: NCI single dose (10 µM) SRB screen; type: cell-based, human; settings: melanoma, 48 h
# SK-MEL-5 = assay: NCI single dose (10 µM) SRB screen; type: cell-based, human; settings: melanoma, 48 h
# EKVX = assay: NCI single dose (10 µM) SRB screen; type: cell-based, human; settings: non-small cell lung cancer, 48 h
# MDA-MB-468 = assay: NCI single dose (10 µM) SRB screen; type: cell-based, human; settings: breast cancer, 48 h
# OVCAR-5 = assay: NCI single dose (10 µM) SRB screen; type: cell-based, human; settings: ovarian cancer, 48 h
# CAKI-1 = assay: NCI single dose (10 µM) SRB screen; type: cell-based, human; settings: renal cancer, 48 h
# MCF7 = assay: NCI single dose (10 µM) SRB screen; type: cell-based, human; settings: breast cancer, 48 h
# NCI-H522 = assay: NCI single dose (10 µM) SRB screen; type: cell-based, human; settings: non-small cell lung cancer, 48 h
# PC-3 = assay: NCI single dose (10 µM) SRB screen; type: cell-based, human; settings: prostate cancer, 48 h
# COLO 205 = assay: NCI single dose (10 µM) SRB screen; type: cell-based, human; settings: colon cancer, 48 h
# Pseudomonas aeruginosa = assay: Agar well diffusion method; settings: relative to ciprofloxacin
# LOX IMVI = assay: NCI single dose (10 µM) SRB screen; type: cell-based, human; settings: melanoma, 48 h
# RPMI-8226 = assay: NCI single dose (10 µM) SRB screen; type: cell-based, human; settings: leukaemia, 48 h
# OVCAR-8 = assay: NCI single dose (10 µM) SRB screen; type: cell-based, human; settings: ovarian cancer, 48 h
# OVCAR-3 = assay: NCI single dose (10 µM) SRB screen; type: cell-based, human; settings: ovarian cancer, 48 h
# HCC-2998 = assay: NCI single dose (10 µM) SRB screen; type: cell-based, human; settings: colon cancer, 48 h
# UACC-257 = assay: NCI single dose (10 µM) SRB screen; type: cell-based, human; settings: melanoma, 48 h
# SK-OV-3 = assay: NCI single dose (10 µM) SRB screen; type: cell-based, human; settings: ovarian cancer, 48 h
# NCI-H460 = assay: NCI single dose (10 µM) SRB screen; type: cell-based, human; settings: non-small cell lung cancer, 48 h
# M14 = assay: NCI single dose (10 µM) SRB screen; type: cell-based, human; settings: melanoma, 48 h
# SF-295 = assay: NCI single dose (10 µM) SRB screen; type: cell-based, human; settings: CNS cancer, 48 h
# CCRF-CEM = assay: NCI single dose (10 µM) SRB screen; type: cell-based, human; settings: leukaemia, 48 h
# MDA-MB-435 = assay: NCI single dose (10 µM) SRB screen; type: cell-based, human; settings: melanoma, 48 h
# T-47D = assay: NCI single dose (10 µM) SRB screen; type: cell-based, human; settings: breast cancer, 48 h
# SNB-19 = assay: NCI single dose (10 µM) SRB screen; type: cell-based, human; settings: CNS cancer, 48 h
# HT29 = assay: NCI single dose (10 µM) SRB screen; type: cell-based, human; settings: colon cancer, 48 h
# HS578T = assay: NCI single dose (10 µM) SRB screen; type: cell-based, human; settings: breast cancer, 48 h
# A498 = assay: NCI single dose (10 µM) SRB screen; type: cell-based, human; settings: renal cancer, 48 h
# Bacillus subtilis = assay: Agar well diffusion method; settings: relative to ciprofloxacin
# MDA-MB-231 = assay: NCI single dose (10 µM) SRB screen; type: cell-based, human; settings: breast cancer, 48 h
# A549/ATCC = assay: NCI single dose (10 µM) SRB screen; type: cell-based, human; settings: non-small cell lung cancer, 48 h
# SR = assay: NCI single dose (10 µM) SRB screen; type: cell-based, human; settings: leukaemia, 48 h
# NCI 60 cancer cell lines = assay: NCI single dose (10 µM) SRB screen, mean over panel; type: cell-based, human; settings: mean over 60 cell lines, 48 h
# NCI-H322M = assay: NCI single dose (10 µM) SRB screen; type: cell-based; settings: non-small cell lung cancer, 48 h
# 786-0 = assay: NCI single dose (10 µM) SRB screen; type: cell-based, human; settings: renal cancer, 48 h
# Escherichia coli = assay: Agar well diffusion method; settings: relative to ciprofloxacin
# DU-145 = assay: NCI single dose (10 µM) SRB screen; type: cell-based, human; settings: prostate cancer, 48 h
# RXF 393 = assay: NCI single dose (10 µM) SRB screen; type: cell-based, human; settings: renal cancer, 48 h
# BT-549 = assay: NCI single dose (10 µM) SRB screen; type: cell-based, human; settings: breast cancer, 48 h
# Candida albicans = assay: Agar well diffusion method; settings: relative to clotrimazole
# Staphylococcus aureus = assay: Agar well diffusion method
# NCI-H23 = assay: NCI single dose (10 µM) SRB screen; type: cell-based, human; settings: non-small cell lung cancer, 48 h
# TK-10 = assay: NCI single dose (10 µM) SRB screen; type: cell-based, human; settings: renal cancer, 48 h
# MALME-3M = assay: NCI single dose (10 µM) SRB screen; type: cell-based, human; settings: melanoma, 48 h
# NCI/ADR-RES = assay: NCI single dose (10 µM) SRB screen; type: cell-based, human; settings: ovarian cancer, 48 h
# NCI-H226 = assay: NCI single dose (10 µM) SRB screen; type: cell-based, human; settings: non-small cell lung cancer, 48 h
# SNB-75 = assay: NCI single dose (10 µM) SRB screen; type: cell-based, human; settings: CNS cancer, 48 h
# U251 = assay: NCI single dose (10 µM) SRB screen; type: cell-based, human; settings: CNS cancer, 48 h
# ACHN = assay: NCI single dose (10 µM) SRB screen; type: cell-based, human; settings: renal cancer, 48 h
# OVCAR-4 = assay: NCI single dose (10 µM) SRB screen; type: cell-based, human; settings: ovarian cancer, 48 h
# K-562 = assay: NCI single dose (10 µM) SRB screen; type: cell-based, human; settings: leukaemia, 48 h
# SW-620 = assay: NCI single dose (10 µM) SRB screen; type: cell-based, human; settings: colon cancer, 48 h
# SN12C = assay: NCI single dose (10 µM) SRB screen; type: cell-based, human; settings: renal cancer, 48 h
# SF-268 = assay: NCI single dose (10 µM) SRB screen; type: cell-based, human; settings: CNS cancer, 48 h
# HCT-116 = assay: NCI single dose (10 µM) SRB screen; type: cell-based, human; settings: colon cancer, 48 h
# KM12 = assay: NCI single dose (10 µM) SRB screen; type: cell-based, human; settings: colon cancer, 48 h
# SF-539 = assay: NCI single dose (10 µM) SRB screen; type: cell-based, human; settings: CNS cancer, 48 h
# HL-60(TB) = assay: NCI single dose (10 µM) SRB screen; type: cell-based, human; settings: leukaemia, 48 h
substance,measurement,setting,value
"Diethyl 4-(3-cyanophenyl)-2,6-dipropyl-1,4-dihydropyridine-3,5-dicarboxylate [Compound 1h]",GI% IGROV1,IGROV1,10%
same,GI% HOP-62,HOP-62,– (Only GI% ≥ 10 are shown)
same,GI% SK-MEL-28,SK-MEL-28,– (Only GI% ≥ 10 are shown)
same,GI% HCT-15,HCT-15,17%
same,GI% UO-31,UO-31,19%
same,GI% SK-MEL-2,SK-MEL-2,– (Only GI% ≥ 10 are shown)
same,"Diameter of inhibition zone, A. flavus","Aspergillus flavus; 1 mg/mL in DMSO, 24 h, 36 °C",8 mm
same,"% activity index, A. flavus",Aspergillus flavus; relative to clotrimazole,32%
same,GI% MOLT-4,MOLT-4,38%
same,GI% HOP-92,HOP-92,29%
same,GI% UACC-62,UACC-62,19%
same,GI% SK-MEL-5,SK-MEL-5,31%
same,GI% EKVX,EKVX,21%
same,GI% MDA-MB-468,MDA-MB-468,20%
same,GI% OVCAR-5,OVCAR-5,– (Only GI% ≥ 10 are shown)
same,GI% CAKI-1,CAKI-1,30%
same,GI% MCF7,MCF7,25%
same,GI% NCI-H522,NCI-H522,20%
same,GI% PC-3,PC-3,47%
same,GI% COLO 205,COLO 205,– (Only GI% ≥ 10 are shown)
same,"% activity index, P. aeruginosa",Pseudomonas aeruginosa,– (Values below 25 are of limited value and not shown as they refer either to inactive or non-diffusing compounds)
same,GI% LOX IMVI,LOX IMVI,– (Only GI% ≥ 10 are shown)
same,GI% RPMI-8226,RPMI-8226,34%
same,GI% OVCAR-8,OVCAR-8,– (Only GI% ≥ 10 are shown)
same,GI% OVCAR-3,OVCAR-3,– (Only GI% ≥ 10 are shown)
same,GI% HCC-2998,HCC-2998,– (Only GI% ≥ 10 are shown)
same,GI% UACC-257,UACC-257,– (Only GI% ≥ 10 are shown)
same,GI% SK-OV-3,SK-OV-3,– (Only GI% ≥ 10 are shown)
same,GI% NCI-H460,NCI-H460,– (Only GI% ≥ 10 are shown)
same,GI% M14,M14,– (Only GI% ≥ 10 are shown)
same,GI% SF-295,SF-295,11%
same,GI% CCRF-CEM,CCRF-CEM,24%
same,GI% MDA-MB-435,MDA-MB-435,– (Only GI% ≥ 10 are shown)
same,GI% T-47D,T-47D,32%
same,GI% SNB-19,SNB-19,– (Only GI% ≥ 10 are shown)
same,GI% HT29,HT29,12%
same,GI% HS578T,HS578T,18%
same,GI% A498,A498,18%
same,"% activity index, B. subtilis",Bacillus subtilis,– (Values below 25 are of limited value and not shown as they refer either to inactive or non-diffusing compounds)
same,GI% MDA-MB-231,MDA-MB-231,– (Only GI% ≥ 10 are shown)
same,GI% A549/ATCC,A549/ATCC,21%
same,GI% SR,SR,32%
same,Mean GI%,NCI 60 cancer cell lines,14%
same,GI% NCI-H322M,NCI-H322M,– (Only GI% ≥ 10 are shown)
same,GI% 786-0,786-0,16%
same,"% activity index, E. coli",Escherichia coli,– (Values below 25 are of limited value and not shown as they refer either to inactive or non-diffusing compounds)
same,GI% DU-145,DU-145,– (Only GI% ≥ 10 are shown)
same,GI% RXF 393,RXF 393,18%
same,GI% BT-549,BT-549,14%
same,"% activity index, C. albicans",Candida albicans,– (Values below 25 are of limited value and not shown as they refer either to inactive or non-diffusing compounds)
same,"Diameter of inhibition zone, S. aureus","Staphylococcus aureus; 1 mg/mL in DMSO, 24 h, 36 °C",7 mm
same,"% activity index, S. aureus",Staphylococcus aureus; relative to ciprofloxacin,29.2%
same,GI% NCI-H23,NCI-H23,– (Only GI% ≥ 10 are shown)
same,GI% TK-10,TK-10,– (Only GI% ≥ 10 are shown)
same,GI% MALME-3M,MALME-3M,– (Only GI% ≥ 10 are shown)
same,GI% NCI/ADR-RES,NCI/ADR-RES,18%
same,GI% NCI-H226,NCI-H226,26%
same,GI% SNB-75,SNB-75,42%
same,GI% U251,U251,– (Only GI% ≥ 10 are shown)
same,GI% ACHN,ACHN,– (Only GI% ≥ 10 are shown)
same,GI% OVCAR-4,OVCAR-4,32%
same,GI% K-562,K-562,31%
same,GI% SW-620,SW-620,– (Only GI% ≥ 10 are shown)
same,GI% SN12C,SN12C,– (Only GI% ≥ 10 are shown)
same,GI% SF-268,SF-268,22%
same,GI% HCT-116,HCT-116,30%
same,GI% KM12,KM12,– (Only GI% ≥ 10 are shown)
same,GI% SF-539,SF-539,14%
same,GI% HL-60(TB),HL-60(TB),– (Only GI% ≥ 10 are shown)
